In the NIST ThermoML archive (doi:10.1021/acs.jced.5b00251):

Test: refractive index (other wavelength) (dimensionless); xn = mol fraction of the nth substance listed
Conditions: 101 kPa, Liquid, Standard Abbe refractometry

c1ccc2c(c1)CCCC2 [1,2,3,4-tetrahydronaphthalene] + CCCCCCCCCCCC
refractive index
Conditions | x1 = 0.1014 | x1 = 0.2024 | x1 = 0.3032 | x1 = 0.4036 | x1 = 0.5038 | x1 = 0.6036 | x1 = 0.7032 | x1 = 0.8024 | x1 = 0.9014
293.15 K, Wavelength=436.1 nm | 1.44127 | 1.45203 | 1.46314 | 1.47515 | 1.48812 | 1.50126 | 1.51481 | 1.52971 | 1.54558
293.15 K, Wavelength=513.9 nm | 1.43473 | 1.44489 | 1.45538 | 1.46671 | 1.47843 | 1.49106 | 1.50417 | 1.51804 | 1.53275
293.15 K, Wavelength=589.3 nm | 1.43105 | 1.44086 | 1.45101 | 1.46197 | 1.47329 | 1.48552 | 1.49803 | 1.51156 | 1.52591
293.15 K, Wavelength=633.2 nm | 1.42949 | 1.43917 | 1.44918 | 1.45999 | 1.47113 | 1.48318 | 1.49553 | 1.50887 | 1.52288
293.15 K, Wavelength=657.2 nm | 1.42878 | 1.43896 | 1.44835 | 1.45921 | 1.47078 | 1.48194 | 1.4944 | 1.50801 | 1.52229
298.15 K, Wavelength=436.1 nm | 1.439 | 1.44978 | 1.46073 | 1.47277 | 1.48561 | 1.49875 | 1.51238 | 1.52724 | 1.54301
298.15 K, Wavelength=513.9 nm | 1.43249 | 1.44267 | 1.4533 | 1.46438 | 1.47612 | 1.48874 | 1.50164 | 1.51563 | 1.53046
298.15 K, Wavelength=589.3 nm | 1.42884 | 1.43868 | 1.44896 | 1.45965 | 1.47078 | 1.48302 | 1.4955 | 1.50927 | 1.52353
298.15 K, Wavelength=633.2 nm | 1.42729 | 1.43699 | 1.44692 | 1.45768 | 1.4689 | 1.4807 | 1.4932 | 1.50652 | 1.52049
298.15 K, Wavelength=657.2 nm | 1.42675 | 1.43623 | 1.44627 | 1.45678 | 1.46851 | 1.47967 | 1.49181 | 1.50529 | 1.5199
303.15 K, Wavelength=436.1 nm | 1.43671 | 1.44738 | 1.45818 | 1.4705 | 1.48295 | 1.49619 | 1.50983 | 1.52452 | 1.54034
303.15 K, Wavelength=513.9 nm | 1.43024 | 1.44033 | 1.45084 | 1.46216 | 1.47359 | 1.48633 | 1.49917 | 1.51321 | 1.52785
303.15 K, Wavelength=589.3 nm | 1.42659 | 1.43636 | 1.44635 | 1.45733 | 1.46841 | 1.48085 | 1.49318 | 1.50685 | 1.52095
303.15 K, Wavelength=633.2 nm | 1.42505 | 1.4347 | 1.44438 | 1.45549 | 1.46668 | 1.47855 | 1.49077 | 1.50415 | 1.51798
303.15 K, Wavelength=657.2 nm | 1.42434 | 1.434 | 1.44387 | 1.45441 | 1.46615 | 1.47729 | 1.48949 | 1.50284 | 1.51741
